Measured values published in the NIST ThermoML archive (doi:10.1016/j.jct.2012.08.019).

How the values were obtained:
[1] = 323.2 K, Liquid, Vibrating tube method
[2] = xn = mol fraction of the nth substance listed; conditions: Liquid; for mass density: Vibrating tube method; for viscosity: Moving piston method

CCCCCCCCCC [decane]
[1]
Conditions	mass density [kg/m3]
100 kPa	707
1000 kPa	707.9
2000 kPa	708.8
3000 kPa	709.7
4000 kPa	710.6
5000 kPa	711.5
6000 kPa	712.4
7000 kPa	713.3
8000 kPa	714.1
9000 kPa	715
10000 kPa	715.9

CCCCCCCCCC [decane] + CCCCCCCCCCCCCC
[2], 323.2 K, x1 = 1
Conditions	mass density [kg/m3]
100 kPa	707
1000 kPa	707.9
2000 kPa	708.8
3000 kPa	709.7
4000 kPa	710.6
5000 kPa	711.5
6000 kPa	712.4
7000 kPa	713.3
8000 kPa	714.1
9000 kPa	715
10000 kPa	715.9

CCCCCCCCCC [decane] + O=C=O
[2]
Conditions	mass density, 323.3 K [kg/m3]	viscosity, 323.2 K [mPa·s]
1020 kPa, x2 = 0.094	711	0.56
2080 kPa, x2 = 0.19	716	0.46
2970 kPa, x2 = 0.263	720	0.42
3940 kPa, x2 = 0.353	724	0.38
4910 kPa, x2 = 0.429	729	0.33
5960 kPa, x2 = 0.513	735	0.28

CCCCCCCCCCCCCC [tetradecane]
[1]
Conditions	mass density [kg/m3]
100 kPa	741.3
1000 kPa	742.1
2000 kPa	742.9
3000 kPa	743.7
4000 kPa	744.4
5000 kPa	745.2
6000 kPa	746
7000 kPa	746.7
8000 kPa	747.5
9000 kPa	748.2
10000 kPa	749

CCCCCCCCCCCCCC [tetradecane] + CCCCCCCCCC
mass density [kg/m3], [2], 323.2 K
Conditions	x2 = 0	x2 = 0.25	x2 = 0.5	x2 = 0.75
100 kPa	741.3	734.3	726.5	717.2
1000 kPa	742.1	735.1	727.4	718.1
2000 kPa	742.9	735.9	728.2	719
3000 kPa	743.7	736.7	729.1	719.8
4000 kPa	744.4	737.5	729.8	720.7
5000 kPa	745.2	738.3	730.7	721.6
6000 kPa	746	739.1	731.5	722.5
7000 kPa	746.7	739.9	732.4	723.2
8000 kPa	747.5	740.7	733.2	724
9000 kPa	748.2	741.5	734	724.9
10000 kPa	749	742.2	734.8	725.8

CCCCCCCCCCCCCC [tetradecane] + O=C=O
[2]
Conditions	mass density, 323.3 K [kg/m3]	viscosity, 323.2 K [mPa·s]
980 kPa, x2 = 0.097	744	1.18
2060 kPa, x2 = 0.196	748	1.08
3000 kPa, x2 = 0.279	751	0.96
4030 kPa, x2 = 0.358	755	0.79
4960 kPa, x2 = 0.429	758	0.67
6000 kPa, x2 = 0.496	762	0.56
